Data reported in ChEMBL document CHEMBL5360540, “Antitumor effect of 3-(quinolin-2-ylmethylene)-4,6-dimethyl-5-hydroxy-7-azaoxindole down-regulating the Gas6-Axl axis” (Eur J Med Chem, 2023).

Experiments:
[1] = tested on: PANC-1; experiment: Cytotoxicity against human PANC-1 cells assessed as inhibition of cell growth at 30 uM incubated for 48 hrs by MTT assay relative to control; assay type: functional
[2] = tested on: MCF7; experiment: Cytotoxicity against human MCF7 cells assessed as inhibition of cell growth at 30 uM incubated for 48 hrs by MTT assay relative to control; assay type: functional
[3] = tested on: MDA-MB-231; experiment: Cytotoxicity against human MDA-MB-231 cells assessed as inhibition of cell growth incubated for 48 hrs by MTT assay; assay type: functional, cell-based; settings: MDA-MB-231, 48 h
[4] = tested on: A549; experiment: Cytotoxicity against human A549 cells assessed as inhibition of cell growth incubated for 48 hrs by MTT assay; assay type: functional, cell-based; settings: A549, 48 h
[5] = tested on: HT-29; experiment: Cytotoxicity against human HT-29 cells assessed as inhibition of cell growth incubated for 48 hrs by MTT assay; assay type: functional, cell-based; settings: HT-29, 48 h
[6] = Cytotoxicity against CHO-K1 cells assessed as inhibition of cell growth incubated for 48 hrs by MTT assay; assay type: toxicity, cell-based, Cricetulus griseus; settings: Chinese hamster
[7] = Cytotoxicity against HEK293 cells assessed as inhibition of cell growth incubated for 48 hrs by MTT assay; assay type: toxicity, cell-based; settings: human
[8] = tested on: DU-145; experiment: Cytotoxicity against human DU-145 cells assessed as inhibition of cell growth incubated for 48 hrs by MTT assay; assay type: functional, cell-based; settings: DU-145, 48 h
[9] = tested on: PANC-1; experiment: Cytotoxicity against human PANC-1 cells assessed as inhibition of cell growth incubated for 48 hrs by MTT assay; assay type: functional, cell-based; settings: PANC-1, 48 h
[10] = tested on: U-937; experiment: Cytotoxicity against human U-937 cells assessed as inhibition of cell growth incubated for 48 hrs by MTT assay; assay type: functional, cell-based; settings: U-937, 48 h
[11] = tested on: MCF7; experiment: Cytotoxicity against human MCF7 cells assessed as inhibition of cell growth incubated for 48 hrs by MTT assay; assay type: functional, cell-based; settings: MCF7, 48 h

Structure (SMILES)	inhibition at 30 µM [1] [%]	inhibition at 30 µM [2] [%]	IC50 [3] [µM]	IC50 [4] [µM]	IC50 [5] [µM]	IC50 at 48 h [6] [µM]	IC50 at 48 h [7] [µM]	IC50 [8] [µM]	IC50 [9] [µM]	IC50 [10] [µM]	IC50 [11] [µM]
Cc1nc2c(c(C)c1O)/C(=C/c1ncc[nH]1)C(=O)N2	7.2	2.6	–	–	–	–	–	–	–	–	–
Cc1nc2c(c(C)c1O)/C(=C/c1ccccc1[N+](=O)[O-])C(=O)N2	27.9	23.9	–	–	–	–	–	–	–	–	–
Cc1nc2c(c(C)c1O)/C(=C/c1ccc(F)cc1)C(=O)N2	51.9	48.3	–	–	–	–	–	–	–	–	–
Cc1nc2c(c(C)c1O)/C(=C/c1c[nH]c3ccccc13)C(=O)N2	17.1	2.4	–	–	–	–	–	–	–	–	–
Cc1nc2c(c(C)c1O)/C(=C/c1ccoc1)C(=O)N2	26.2	66.3	> 90	> 90	> 90	> 90	> 90	22.9	> 100	31.5	22.9
COc1cccc(/C=C2\C(=O)Nc3nc(C)c(O)c(C)c32)c1	46.5	29.6	–	–	–	–	–	–	–	–	–
Cc1nc2c(c(C)c1O)/C(=C/c1ccc([N+](=O)[O-])cc1)C(=O)N2	32.6	16.3	–	–	–	–	–	–	–	–	–
Cc1nc2c(c(C)c1O)/C(=C/c1cccs1)C(=O)N2	42.3	57.8	–	–	–	–	–	–	–	–	–
COc1ccc(OC)c(/C=C2\C(=O)Nc3nc(C)c(O)c(C)c32)c1	69.3	67.5	22.9	47.5	16.6	47.5	11	5.6	19.5	33	20.9
CCC(/C=C1\C(=O)Nc2nc(C)c(O)c(C)c21)CC	45	30.5	–	–	–	–	–	–	–	–	–
CCCCC/C=C1\C(=O)Nc2nc(C)c(O)c(C)c21	77.5	76.9	12.6	7.6	12.9	20.9	6.1	11	8.1	11.5	13.9
COc1ccc(Br)cc1/C=C1\C(=O)Nc2nc(C)c(O)c(C)c21	71.8	74.7	10.5	10.1	25.1	30.1	19.5	4.6	6.4	12.6	11
Cc1nc2c(c(C)c1O)/C(=C/c1ccncc1)C(=O)N2	65.5	63.2	> 90	30.1	30.1	57	> 90	30.8	19.1	34.5	19.1
Cc1nc2c(c(C)c1O)/C(=C/C1CCCCC1)C(=O)N2	49.1	10	–	–	–	–	–	–	–	–	–
Cc1nc2c(c(C)c1O)/C(=C/c1ccc3ccccc3c1)C(=O)N2	29	30.5	–	–	–	–	–	–	–	–	–
COc1cc(/C=C2\C(=O)Nc3nc(C)c(O)c(C)c32)cc(OC)c1OC	40.7	41.2	–	–	–	–	–	–	–	–	–
Cc1nc2c(c(C)c1O)/C(=C/C(c1ccccc1)c1ccccc1)C(=O)N2	81.5	78.1	22.9	31.5	11.5	30.1	37.8	8.8	7.4	16.6	6.4
COc1ccccc1/C=C1\C(=O)Nc2nc(C)c(O)c(C)c21	10.2	30.7	–	–	–	–	–	–	–	–	–
